# Experimental data published in patent US20140050773A1, “COMPOUND COMPRISING ALPHA-MSH FOR USE IN ENDODONTIC REGENERATION” (Universite De Strasbourg, priority 2010, published 2014).
# How the values were obtained:
# [1] = system: pulp fibroblasts; assay: Intracellular cAMP accumulation in pulp fibroblasts; type: cell-based, human; conditions: 30 min; forskolin 3 μM, MTII 10 μg·mL-1; basal level 239±36 fmol/well
# Method: Pulp fibroblasts (1×10^5) were plated in 24-well-plates in D-MEM® containing 1% antimicotic solution and 10% FBS (Life Technologies, Paisley, UK). The cultures were incubated at 37° C. in a humidified atmosphere of 5% CO2, and allowed to adhere for 2 h. Cells were then washed and incubated with […] Forskolin (positive control), the MC3/4R agonist MTII (10 μg·mL^−1), the MC1R agonist MS05 (10 μg·mL^−1), and PGA-α-MSH (10-300 μg·mL^−1) in the presence of 1 mM isobutylmethylxantine in serum-free medium and incubated for 30 min at 37° C. in a humidified atmosphere of 5% CO2. A non-treated group incubated in serum-free medium alone served as a negative control. Cell supernatants were then removed and the cells were lysed. Intracellular cAMP was quantified using a commercially available enzyme immunoassay kit and a standard curve constructed with 0-3200 fmol μg·mL-1 cAMP (Amersham Bioscience, Little Chalfont, U.K).
# [2] = system: pulp fibroblasts; assay: Cell proliferation by the acid phosphatase method; type: cell-based, human; conditions: in solution, FIG. 4 lower part
# Method: (§1) Cell viability was determined by trypan blue exclusion. Cell proliferation was measured by the acid phosphatase method. Briefly, cells were washed with […] PBS. The buffer added to each well contains 0.1 M sodium acetate (pH 5.5), 0.1% of X-100 Triton and 10 mM of p-nitrophenyl phosphate [pNPP] (Sigma, St Quentin, France). After a 3 h-incubation at 37° C. with 5% 002 the reaction was stopped by the addition of 1 N sodium hydroxide and the absorbance was measured by spectrophotometer at 405 nm (Labsystems, iEMS Reader MF, Gibco). Cell viability and proliferation were measured at 24 and 96 hours. Cell spreading and adhesion were observed by confocal microscopy. AlamarBlue® (Serotec) was used to assess cellular proliferation. The AlamarBlue test is a non-toxic, water-soluble, calorimetric redox indicator that changes color in response to cell metabolism. […] After 6 hours, […] of incubation media was transferred to 96-well plates and measured at 590 nm and 630 nm in order to determine the percentage of AlamarBlue reduction. The ability of free α-MSH and PGA-α-MSH to promote proliferation and/or adhesion of fibroblasts was also determined. Cell viability was determined by trypan blue exclusion and the proliferation was measured by the acidic phosphatase method (FIG. 4).
# [3] = system: pulp fibroblasts; type: cell-based, human
# Method: as §1
# [4] = system: LPS-stimulated pulp fibroblasts; assay: TNF-α, IL-8 and IL-10 production by LPS-stimulated pulp fibroblasts (ELISA); type: cell-based, human
# Method: Human pulp fibroblasts were obtained from human third molar germ tissue extracted for orthodontic reasons (Dental School, Strasbourg). These tissues were used with the patient's informed consent and approval by the Research Ethics Committee. Human pulp fibroblasts and mouse embryo fibroblasts (NIH 3T3, a gift of IGBMC, Strasbourg, France) were cultured in Dulbecco's modified Eagle's medium (D-MEM®) containing 1% antimicotic solution and 10% FBS (Life Technologies, Paisley, UK). The cultures were incubated at 37° C. in a humidified atmosphere of 5% CO2. When the cells reached sub-confluence, they were harvested with trypsin and sub-cultured. The fibroblast cultures used for all experiments were from passages three to six. Fibroblasts (5×10^5) were seeded in 24-well plates (Nunc, CML, Nemours, France) and incubated with LPS (10 ng·mL^−1) from E, coli in the presence or absence of free α-MSH or PGA-Q-MSH coupled peptides, in D-MEM® without FBS. At different time-points of incubation, cells were centrifuged and the levels of TNF-α, IL-10 or IL-8 in cell-free supernatants were determined using commercially available ELISA kits (Endogen, Woburn, Mass.). Studies of the effects of multilayer films consisting of PGA-α-MSH coupled peptides were conducted by seeding 5×10^5 cells directly onto the film in a 24-well plate as previously described (Chluba et al. Biomacromolecules. 2001, 2:800-805). All experiments were performed at least three times. […]
# [5] = system: pulp fibroblasts; assay: Pulp fibroblast adhesion by confocal microscopy; type: cell-based, human; conditions: 2 days of culture; FIG. 5
# Method: Cell spreading and adhesion were observed by confocal microscopy. […] In this study, 5×10^4 pulp fibroblasts were seeded on the top of LbL-coated 14 mm-diameter coverslips (n=3) placed on 24-well plates. […] After 2 days of proliferation, cells were fixed with 4% PFA during 1 hour, permeabilized with 0.1% Triton X-100 for 1 hour and incubated for 20 min with Alexa Fluor 546-conjugated phalloidin (Molecular Probes) for F-actin labeling and 5 min with 200 nM DAPI (Sigma) for nuclear staining. Cells were mounted on microscope slides using Vectashield (Vector) and imaged by confocal microscopy (Zeiss, LSM 510). CLSM observations were documented with a Zeiss LSM 510 microscope using a ×40/1.4 oil immersion objective at 0.4 μm z-section intervals. FITC fluorescence was detected after excitation at 488 nm with a cutoff dichroic mirror 488 nm and an emission band-pass filter 505-530 nm (green). All experiments were performed with cells in solution.
# [6] = biological target: MCR receptors (melanocortin receptors) on human pulp fibroblasts; assay: cell-based or functional assay
compound,measurement,setting,value
"C=C[C@@]1(C)CC(=O)[C@]2(O)[C@@]3(C)[C@@H](O)CCC(C)(C)[C@@H]3[C@H](O)[C@H](OC(C)=O)[C@@]2(C)O1 [forskolin, Forskolin]",cAMP concentration,[1],3367±242 fmol/well
HS—CH2CH2-Ser-Tyr-Ser-Nle-Glu-His-D-Phe-Arg-Trp-Gly-Lys-Pro-Val-COOH [α-MSH],proliferation of pulp fibroblasts,[2],inhibits the proliferation
same,proliferation of pulp fibroblasts,[2]; listed as free α-MSH,without effect
same,viability of pulp fibroblasts,[3],not the viability
same,LPS-induced IL-8 secretion,"[4]; 100 μg·mL^−1, 6 h time period",no inhibition
same,IL-10 production by LPS-stimulated pulp fibroblasts,"[4]; LPS 10 ng mL^−1, 100 μg·mL-1 peptide, late (4 hours)",induced significant levels
same,amount of IL-8 produced (LPS-stimulated),"[4]; concentration increased to 400 μg·mL-1, data not shown",did not change
same,LPS induced TNF-α secretion,"[4]; early timepoints (20 min to 2 h), LPS 10 ng mL^−1, 100 μg·mL-1 peptide",significantly inhibited
same,LPS induced TNF-α secretion,"[4]; later time-points (4-6 h), LPS 10 ng mL^−1, 100 μg·mL-1 peptide",this effect was lost
same,adhesion of pulp fibroblasts,[5],without effect
MTII,cAMP concentration,[1],459±14 fmol/well
MTII (peptide),"intracellular cAMP accumulation in pulp fibroblasts, 30 min",[6],459 fmol/well
